The source of these data is patent US20050171028A1, “Thioketals and thioethers for inhibiting the expression of VCAM-1” (Atherogenics Pharmaceuticals, Inc., priority 2000, published 2005).

Format in all cases: cell-based
One series has as its system VCAM-1. The experiment in a line: VCAM-1 assay: enzyme immunoassay of TNF-alpha induced VCAM-1 expression in endothelial cells. The conditions noted are these: Homo sapiens, Endothelial cell; HAEC stimulated with TNF-alpha (1 ng/ml), about 16 hours with compound; read-out: VCAM-1 IC50 or % inhibition at. The procedure:
The VCAM-1 assay is an enzyme immunoassay to detect tumor necrosis factor alpha (TNF-alpha) induced Vascular Cell Adhesion Molecule (VCAM-1) expression in endothelial cells.
(§1) Human aortic endothelial cells (HAEC) were purchased from Clonetics and maintained in EGM media (Clonetics) supplemented with 5% fetal bovine serum (FBS). In a typical experiment, cells were seeded in 96-well plates. The next day cells were stimulated with TNF-alpha (1 ng/ml) purchased from Boehringer Mannheim in the presence or absence of compounds dissolved in dimethylsulphoxide (DMSO). To establish a dose curve for each compound, four concentrations in 2 fold increments were used. Cells were exposed to TNF-α and compounds for approximately 16 hours. The next day, cells were examined under microscope to score for visual signs of toxicity.
Media was discarded and the cells were washed once with Hanks buffered saline solution (HBSS)/phosphate buffered solution (PBS) 91:1). Primary mouse monoclonal antibody against VCAM-1 purchased from Southern Biotechnology Associates (0.25 μg/ml in HBSS/PBS+5% FBS) was added and incubated at 37° C. for 30 minutes. Cells were washed with HBSS/PBS three times, and secondary antibody horse radish peroxidase (HRP)-conjugated goat anti-mouse IgG purchased from Southern Biotechnology Associates (1:500 in HBSS/PBS+5% FBS) was added and incubated at 37° C. for 30 minutes. Cells were washed with HBSS/PBS four times and peroxidase substrate 3.3′,5,5′-tetramethyl-benzidine (TMB) was added and incubated in the dark at room temperature until there was adequate blue color development. The length of incubation time was typically 5-15 minutes. 2 N sulfuric acid was added to stop the color development and the data was collected by reading the absorbance at O.D. 450 nm. The result was expressed as the percentage of control sample (cells stimulated by TNF without any compound).
(§2) The degree of inhibition of various compounds, including the compounds prepared in the foregoing examples, using the assays described in Examples 6-9, are provided in Table IX. Results are expressed in micromolar quantities.

The subject of another series is ApoB/HepG2. Put plainly: Lipid screen: ApoB ELISA on media of treated HEPG2 cells. The conditions noted are these: Homo sapiens; HEPG2 cells treated 24 hours; ApoB accumulation in media as percentage of control; read-out: ApoB/Hep G2 IC50 or % inhibition at. The procedure:
HEPG2 cell was started in 10 ml of MEM, 10% FBS, 1 mM Sodium Pyruvate. The cells were incubated in a tissue culture incubator. The cells were split into 4×96-wells plate in MEM, 10% FBS, 1 mM Sodium Pyruvate and allowed to grow to about 50% confluency and then removed.
The cells were treated with the desired concentration of compounds in 100 μl DMEM, 1% RSA for 24 hours. The compounds are dissolved in DMSO.
On the same day, 4×96-wells NuncImmunoSorb plate is coated with 100 μl of mouse anti-human ApoB monoclonal 1D1 (1:1000 dilution in 1×PBS, pH 7.4). The coating is allowed to stand overnight.
The coated plate is washed 3 times with 1×PBS, pH 7.4, −0.05% Tween 20. 100 μl of the standards is added to the selected wells. ApoB standards are prepared at 6.25, 3.12, 1.56, 0.78, 0.39 ng, and each concentration is done in triplicates.
90 μl of 1×PBS, pH 7.4, −0.05% Tween 20 is added to each well corresponding to the sample. 10 μl of media is transferred from the treated HEPG2 plates to the ApoB ELISA plate. The plate is incubated at room temperature for 2 hours, rocking gently.
Wash the coated plate 3× with 1×PBS, pH 7.4, −0.05% Tween 20. Add 100 μl of sheep anti-human ApoB polyclonal from Boehringer Mannheim. (1:2000 dilution in 1×PBS, pH 7.4, −0.05% Tween 20). Incubate at room temperature for 1 hour, rocking gently. Wash the coated plate 3× with 1×PBS, pH 7.4, −0.05% Tween 20. Add 100 μl of rabbit anti-sheep IgG (1:2000 dilution in 1×PBS, pH 7.4, −0.05% Tween 20). Incubate at room temperature for 1 hour, rocking gently. Wash the coated plate 3× with 1×PBS, pH 7.4, −0.05% Tween 20. Add 100 μl of substrate (10 ml of distilled water, 100 μl of TMB (10 mg/ml), and 1 μl of hydrogen peroxide). Allow color to emerge and stop reaction with 25 ul of 8N sulfuric acid. Wells are read with MicroPlate Reader @ […]. Graph accumulation of ApoB in media as a percentage of control for each sample and their concentration. A determination of IC50 is obtained from the graph.
On the technique in general: In an ELISA, binding on a coated surface is turned into a signal by an enzyme label.

Series [1] has as its system Human aortic endothelial cells (HAEC). Put plainly: LD50 (toxicity to cells; visual signs of toxicity scored in the VCAM-1 assay). The procedure: as §1, §2

`CCN(CC)C(=O)c1ccc(CSc2cc(C(C)(C)C)c(O)c(C(C)(C)C)c2)cc1`: the IC50 with VCAM-1 turned out to be 12.5 µM; in the series with ApoB/HepG2, 40 µM.

Take `CC(C)(Sc1cc(C(C)(C)C)c(O)c(C(C)(C)C)c1)Sc1cc(C(C)(C)C)c(OC[C@@H](O)[C@@H](O)[C@@H](O)CO)c(C(C)(C)C)c1`: the IC50 in the series on VCAM-1 was determined as 12.5 µM; with ApoB/HepG2, 6 µM. Besides, the “LD50 at” value in series [1] was determined as 25.0 µM.

Turning to `CN(C)C(=O)c1ccc(CSc2cc(C(C)(C)C)c(O)c(C(C)(C)C)c2)cc1`, the IC50 in the series with VCAM-1 worked out at 12.5 µM; with ApoB/HepG2 it was 85 µM. Further, the “LD50 at” value in series [1] amounted to 50.0 µM.

Turning to `CC(C)(Sc1cc(C(C)(C)C)c(O)c(C(C)(C)C)c1)Sc1cc(C(C)(C)C)c(OCC2OC(O)[C@@H](O)[C@H]2O)c(C(C)(C)C)c1` (some centres unmarked), the IC50 in the series with VCAM-1 worked out at 8 µM.

In the case of `CC(C)(Sc1cc(C(C)(C)C)c(O)c(C(C)(C)C)c1)Sc1cc(C(C)(C)C)c(OCC(O)COC(=O)C(O)C(O)C(O)C(O)CO)c(C(C)(C)C)c1` (centres unmarked), the values for the IC50 in the series on VCAM-1 and in the series with ApoB/HepG2 were 7 µM and 30 µM, respectively. In addition, the “LD50 at” value in series [1] was 50.0 µM.

Take `CC(C)(Sc1cc(C(C)(C)C)c(O)c(C(C)(C)C)c1)Sc1cc(C(C)(C)C)c(OCC(O)CS(=O)(=O)O)c(C(C)(C)C)c1` (centres unmarked): the IC50 with VCAM-1 was 10 µM. For the same compound, the “LD50 at” value in series [1] was 50.0 µM.
